Reference: patent US7132506B2, “Peptide having osteogenetic activity and osteogenetic accelerator containing the same” (Kyocera Corporation, priority 2001, dated 2006)

Tested on: C3H10T1/2 cell strain
Test: Induction of alkali phosphatase activity in C3H10T1/2 cell strain
Assay type: cell-based, mouse
Conditions: 200 μg peptide solidified per well by air drying; three days of incubation; blank wells 0.24±0.11
Method: Undifferentiated mouse mesenchymal cell strain C3H10T1/2 (purchased from Dai-Nippon Seiyaku KK, Japan) was dispersed in Eagle's MEM medium containing 10% of fetal bovine serum in a cell concentration of 3.75×10^4 cells/mL, and thus a cell culture liquid was prepared.
Three days after the start of incubation, a culture supernatant was removed, and the wells were washed once with phosphate buffer (PBS: 10 mM, containing 0.15 M of common salt, pH 7.4). To each well of the 96-hole plates, 100 μL of Tris buffer (20 mM, pH 8.5) containing 1% Triton X-100 was added and allowed to stand for 30 minutes to dissolve cells. With respect to 100 μL of the resulting cell solution, 100 μL of Tris buffer (1.5 M, containing 1 mM of ZnCl2 and 1 mM of MgCl2, pH 8.5) containing 7.5 mM of p-nitrophenyl phosphate (purchased from Wako Junyaku Kogyo, Japan) were added. Increase in absorbency at 405 nm was measured to determine the alkaline phosphatase activity in the cell solution. The concentration of protein in the cell solution was also determined using a BCA assay kit (produced by Pierce).

| Substance | alkaline phosphatase activity |
| --- | --- |
| Example 4: Peptide having amino acid sequence SEQ ID NO:6 with an amino group at the N terminal and an amide group at the C terminal (H-KIPKASSVPTELSAISTLYL-NH2) | 1.7±0.1 nmol/min·mg-protein |
| Example 2: Peptide having amino acid sequence SEQ ID NO:4 with an amino group at the N terminal and an amide group at the C terminal (H-NSVNSKIPKACSVPTELSAISTLYL-NH2) | 1.5±0.6 nmol/min·mg-protein |
| Example 1: Peptide having amino acid sequence SEQ ID NO:4 with an amino group at the N terminal and a carboxyl group at the C terminal (NSVNSKIPKACSVPTELSAISTLYL) | 1.3±0.9 nmol/min·mg-protein |
| Example 3: Peptide having amino acid sequence SEQ ID NO:5 with an amino group at the N terminal and an amide group at the C terminal (H-NSVNSKIPKASSVPTELSAISTLYL-NH2) | 1.5±0.8 nmol/min·mg-protein |
